Source: patent US8008452B2, “Phosphorylated Ndr kinase” (Novartis Forschungesstiftung, Zweigniederlassung Friedrich …, priority 2002, dated 2011)

Assays:
[1] = molecular target: T1, GST-NDR1 (Homo sapiens, UniProt Q15208, T444A); test: GST-NDR1 kinase assay (peptide kinase assay); format: biochemical; settings: compared with wild type
T1 construct: made in house; host or cells: E. coli BL21-DE3-pRep4
Description: 1 microgram of purified recombinant GST-NDR1 wild type and mutants (without further treatment or autophosphorylated for 2 h in the presence or absence of 1 mM CaCl2 and […] (Sigma)) were assayed in 20 microliter of reaction mixture containing 20 mM Tris-HCl pH 7.5, 10 mM MgCl2, 1 mM DTT, 100 microM [gamma-^32P]ATP (˜0.5 microCi/microliter), and 1 mM NDR1 substrate peptide ([…]; SEQ ID NO:22). After 30 mins incubation at 30° C., reactions were stopped with 50 mM EDTA, and 10 microliters of reaction mixture were spotted onto 2 cm^2 squares of P81 phosphocellulose paper (Whatman). These were subsequently washed for 4×5 min and 3×20 min in 1% phosphoric acid and once in acetone before counting in a liquid scintillation counter. One unit of NDR1 activity was defined as the amount which catalyses the phosphorylation of 1 nmol peptide substrate in 1 min.
Specific activity of GST-NDR1 mutants was also measured by a peptide kinase assay as described above. For this purpose, 1 microgram of purified GST-NDR1 wild type and alanine mutants were left without further treatment or autophosphorylated for 2 h in the presence or absence of 1 mM CaCl2 and […].

[2] = tested on: GST-NDR1; test: Immunodetection of GST-NDR1 phosphorylated on Ser281 or Thr444 after in vitro autophosphorylation; format: biochemical, human; settings: in vitro autophosphorylation with or without Ca2+/S100B
Description: (§1) Either 1 microgram GST-NDR1 or HA-NDR1 immunoprecipitated from 100 microgram COS-1 detergent extracts as described above was separated on 10% SDS-PAGE and immunoblotted 2 h at RT or overnight at 4° C. with anti-Ser281P antisera (1:1000) in the presence of 50 microg/ml competing unphosphopeptide or anti-Thr444P purified antibody (1:500). Both antibodies were detected with horseradish peroxidase-conjugated donkey anti-rabbit Ig antibody (Amersham biosciences) and developed by ECL (chemiluminescence; Amersham Pharmacia Biotech).
To reliably quantify the effect of S100B on NDR1 phosphorylation status, rabbit polyclonal antibodies were raised against phosphoepitopes comprising Ser281 or Thr444. GST-NDR1 mutants were treated essentially as described in Example 2 and detected either with anti-NDR1_C-term antiserum or polyclonal antibodies recognising NDR1 phosphorylated on Ser281 or Thr444.

[3] = tested on: myc-hMOB1; test: Co-immunoprecipitation of HA-NDR and myc-hMOB1 from COS-1 cells; format: binding, human; settings: COS-1 cells treated with OA prior to lysis
Description: HA-tagged hNDR and myc-tagged hMOB1 were cotransfected in COS1 cells, which were stimulated with okadaic acid or solvent alone. After cell lysis and extract preparation, HA-NDR was immunoprecipitated and co-immunoprecipitated myc-hMOB1 detected or Myc-hMOB1 was immunoprecipitated and co-immunoprecipitated HA-NDR detected.
HA-NDR, wt and mutants, and myc-hMOB1 were cotransfected into COS-1 cells and the cells were treated with OA prior to lysis. HA-NDR was immunoprecipitated and the coimmunoprecipitated myc-hMOB1 detected. […] Furthermore, the two important in vivo phosphorylation sites of NDR, serine-281 in the activation segment and the hydrophobic motif site threonine-444 in the C-terminal regulatory domain were tested, as well as the threonine 74 site in the N-terminal regulatory domain, for their role in NDR-MOB interaction.
HA-NDR N-terminal point mutants and myc-mob1 were co-transfected into COS1 cells which were treated with OA prior to lysis. HA-NDR mutants were immunoprecipitated and coimmunoprecipitated myc-hMOB1 detected.
In this Example, the effect of treatment of COS1 cells with BAPTA-AM on the NDR-MOB Interaction was determined. HA-NDR and myc-MOB1 was cotransfected into COS1 cells and the cells were treated with BAPTA-AM and OA or the solvents alone prior to lysis. HA-NDR was immunoprecipitated and co-immunoprecipitated myc-MOB1 detected. The kinase activity of the HA-NDR immunoprecipitates was measured in a peptide kinase assay.

[4] = tested on: HA-NDR1; test: Immunodetection of HA-NDR1 phosphorylated on Ser281 or Thr444 from COS-1 cells; format: cell-based, human
Description: as §1
To examine this possibility, extracts from transfected COS-1 cells were analyzed with the anti-Ser281P and anti-Thr444P antisera. Protein extracts (10 microg) from transfected COS-1 cells were immunoblotted with 12CA5 to verify similar expression levels of each HA-NDR1 construct. For the analysis of phosphorylation status, 12CA5-immunoprecipitated HA-NDR1 variants (out of 100 microg protein extract) were analysed by immunoblotting with phosphospecific antibodies directed against P-S281 or P-T444.
Protein extracts (10 microg) from mock- and HA-NDR1-transfected COS-1 cells were also immunoblotted with 12CA5 to verify equal expression levels of HA-NDR1 construct. For the analysis of phosphorylation status, 12CA5-immunoprecipitated HA-NDR1 (out of 100 microgram protein extract) was analysed by immunoblotting with phosphospecific antibodies directed against P-S281 or P-T444.

T1 sequence (Q15208 whole entry T444A): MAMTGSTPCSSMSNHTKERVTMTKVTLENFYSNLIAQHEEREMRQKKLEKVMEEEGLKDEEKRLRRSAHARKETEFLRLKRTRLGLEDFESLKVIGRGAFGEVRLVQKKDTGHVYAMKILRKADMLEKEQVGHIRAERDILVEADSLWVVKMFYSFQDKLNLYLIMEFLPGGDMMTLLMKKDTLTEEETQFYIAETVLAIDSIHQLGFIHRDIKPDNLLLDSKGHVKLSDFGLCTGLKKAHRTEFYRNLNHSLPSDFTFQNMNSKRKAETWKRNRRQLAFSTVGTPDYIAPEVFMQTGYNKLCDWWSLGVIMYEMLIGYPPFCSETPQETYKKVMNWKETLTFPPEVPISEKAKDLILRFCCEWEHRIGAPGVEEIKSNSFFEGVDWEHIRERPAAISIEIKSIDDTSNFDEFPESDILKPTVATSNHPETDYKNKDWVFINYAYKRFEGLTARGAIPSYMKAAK

Substance	decrease of kinase activity of GST-NDR1 mutant [1]	phosphorylation of GST-NDR1 on Ser281 and Thr444 (phosphospecific antibodies) [2]	interaction of HA-NDR variant with myc-hMOB1 [3]	phosphorylation of HA-NDR1 on Ser281 ([4]; immunoblot with anti-P-S281)	phosphorylation of HA-NDR1 on Thr444 ([4]; immunoblot with anti-P-T444)	interaction of HA-NDR variant with myc-hMOB1 ([3]; listed as threonine 74)
T444A: NDR1 alanine mutant of phosphorylation residue Thr444; GST fusion or HA-tagged	about 5 fold	almost normal autophosphorylation on Ser281	still interact with MOB1	–	–	–
K118A: NDR1 kinase dead mutant, Lys 118 to alanine; GST fusion or HA-tagged	–	–	still able to interact with hMOB1	did not display any phophorylation on this position	became phosphorylated even after abolishing the kinase activity	–
T74A: NDR1 alanine mutant of phosphorylation residue Thr74; GST fusion or HA-tagged	–	abolished the S100B-mediated increase of phosphorylation for both Ser281 and Thr444 residues	complete absence of interaction with MOB1	–	–	not tolerated for the interaction with MOB
